Laboratory results published in paper PMC9621195 (Journal for Immunotherapy of Cancer, 2022).

Target: cathepsin B (Homo sapiens, UniProt P07858)
Assay: microscale thermophoresis with CTSB-WT-EGFP in HCT-116 cell lysate
Format: binding

CC(C)(O)[C@@H]1CC[C@](C)([C@H]2[C@@H](O)C[C@@]3(C)[C@@H]4C[C@H](O)[C@H]5C(C)(C)[C@@H](O)CC[C@@]56C[C@@]46CC[C@]23C)O1 [CAG, Cycloastragenol]
Kd: 26.6 nM
